Measured values taken from PubChem BioAssay AID248 (DTP/NCI, 2004).
Where “and” joins values, the source holds several entries; their conditions need not be identical. Identical values can stand only once. Inconclusive results and toxic doses are left out. Cut-off read from the data, not from the text of the source: active = T/C of 150% or more; inactive = T/C below 125%.

Test system: L1210 leukemia ip in BDF1 mice, survival T/C
Experiment: NCI In Vivo Anticancer Drug Screen. Data for tumor model L1210 Leukemia (intraperitoneal) in B6D2F1 (BDF1) mice
Details: endpoint: mean survival time, higher = longer survival
Procedure, shortened: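 In this screen, tumor-bearing mice given compound are compared to those given vehicle, and their survival values are reported as a treated-to-control quotient.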

[1] = dose: 100.0 mg/kg/injection, schedule: Q01DX009 (ip), vehicle: saline with Tween-80
[2] = dose: 200.0 mg/kg/injection, schedule: Q01DX009 (ip), vehicle: saline with Tween-80
[3] = dose: 400.0 mg/kg/injection, schedule: Q01DX009 (ip), vehicle: saline with Tween-80
[4] = dose: 100.0 mg/kg/injection, schedule: Q01DX001 (ip), vehicle: Klucel (hydroxypropylcellulose) (HPC)
[5] = dose: 100.0 mg/kg/injection, schedule: Q01DX009 (ip), vehicle: saline
[6] = dose: 200.0 mg/kg/injection, schedule: Q01DX009 (ip), vehicle: saline
[7] = dose: 400.0 mg/kg/injection, schedule: Q01DX009 (ip), vehicle: saline
[8] = dose: 100.0 mg/kg/injection, schedule: Q01DX001 (ip), vehicle: saline
[9] = dose: 200.0 mg/kg/injection, schedule: Q01DX001 (ip), vehicle: saline
[10] = dose: 400.0 mg/kg/injection, schedule: Q01DX001 (ip), vehicle: saline
[11] = dose: 12.5 mg/kg/injection, schedule: Q01DX009 (ip), vehicle: saline with Tween-80
[12] = dose: 12.5 mg/kg/injection, schedule: Q04DX003 (ip), vehicle: saline
[13] = dose: 25.0 mg/kg/injection, schedule: Q04DX003 (ip), vehicle: saline
[14] = dose: 6.25 mg/kg/injection, schedule: Q01DX009 (ip), vehicle: Klucel (hydroxypropylcellulose) (HPC)
[15] = dose: 12.5 mg/kg/injection, schedule: Q01DX009 (ip), vehicle: Klucel (hydroxypropylcellulose) (HPC)
[16] = dose: 100.0 mg/kg/injection, schedule: Q01DX009 (ip), vehicle: Klucel (hydroxypropylcellulose) (HPC)
[17] = dose: 200.0 mg/kg/injection, schedule: Q01DX009 (ip), vehicle: Klucel (hydroxypropylcellulose) (HPC)

Measured: T/C

c1cc2c3c(c1)-c1nc4ccccc4cc1CN3CCC2
inactive: [1] 94 % of control | [2] 105 % of control | [3] 96 % of control

CCCCCCCCCCCCCCCCCc1c(Cl)c(Cl)c(Cl)c(Cl)c1Cl
inactive: [4] 90 % of control

COC(=O)C1=C(C(=O)OC)C2(O)c3ccccc3C1c1ccccc12
inactive: [5] 100 % of control | [6] 93 % of control | [7] 88 % of control

CCC1(NS(=O)(=O)c2ccc(NC(C)=O)cc2)C(=O)N(C)C(=O)N(C)C1=O
inactive: [8] 95 % of control | [9] 91 % of control | [10] 91 % of control

CC(O)C(O)C1OC(=O)C1O (stereo unspecified)
inactive: [5] 94 % of control and 98 % of control | [6] 100 % of control and 113 % of control | [7] 104 % of control and 94 % of control

O=[N+]([O-])c1ccc2c3c(cccc13)CC2
inactive: [8] 102 % of control | [9] 96 % of control | [10] 90 % of control

Cc1cc(N)c(C(=O)NN)cc1C
inactive: [8] 96 % of control | [9] 93 % of control | [10] 113 % of control

O=C(O)C[CH2][Ge](=[O])[O][Ge](=[O])[CH2]CC(=O)O
inactive: dose: 100.0 mg/kg/injection, schedule: Q04DX002 (ip), vehicle: saline 100 % of control | dose: 200.0 mg/kg/injection, schedule: Q04DX002 (ip), vehicle: saline 103 % of control | dose: 400.0 mg/kg/injection, schedule: Q04DX002 (ip), vehicle: saline 103 % of control

CC(C)CCNc1ccc(NCCC(C)C)cc1
inactive: [11] 100 % of control | dose: 12.5 mg/kg/injection, schedule: Q04DX003 (ip), vehicle: Klucel (hydroxypropylcellulose) (HPC) 104 % of control | dose: 25.0 mg/kg/injection, schedule: Q01DX009 (ip), vehicle: saline with Tween-80 100 % of control | dose: 25.0 mg/kg/injection, schedule: Q04DX003 (ip), vehicle: Klucel (hydroxypropylcellulose) (HPC) 96 % of control | dose: 50.0 mg/kg/injection, schedule: Q01DX009 (ip), vehicle: saline with Tween-80 96 % of control | dose: 50.0 mg/kg/injection, schedule: Q04DX003 (ip), vehicle: Klucel (hydroxypropylcellulose) (HPC) 96 % of control | dose: 75.0 mg/kg/injection, schedule: Q01DX009 (ip), vehicle: alcohol 86 % of control

CC(C)CC(C)NCC(C)OC(=O)c1ccc(N)cc1 (stereo unspecified)
inactive: dose: 75.0 mg/kg/injection, schedule: Q01DX001 (ip), vehicle: other 110 % of control

CCSc1ccc2c(c1)N(CCCN1CCN(C)CC1)c1ccccc1S2
inactive: dose: 3.12 mg/kg/injection, schedule: Q01DX009 (ip), vehicle: saline 110 % of control | dose: 6.25 mg/kg/injection, schedule: Q01DX009 (ip), vehicle: saline 107 % of control | dose: 6.25 mg/kg/injection, schedule: Q04DX003 (ip), vehicle: saline 93 % of control | dose: 12.5 mg/kg/injection, schedule: Q01DX009 (ip), vehicle: saline 100 % of control | [12] 100 % of control and 101 % of control | dose: 25.0 mg/kg/injection, schedule: Q01DX009 (ip), vehicle: saline 113 % of control | [13] 96 % of control and 97 % of control and 103 % of control | dose: 50.0 mg/kg/injection, schedule: Q01DX009 (ip), vehicle: saline 98 % of control | dose: 50.0 mg/kg/injection, schedule: Q04DX003 (ip), vehicle: saline 100 % of control and 110 % of control | dose: 100.0 mg/kg/injection, schedule: Q04DX003 (ip), vehicle: saline 114 % of control and 104 % of control and 110 % of control

O=C(CC(=O)c1ccco1)c1ccco1
inactive: [8] 100 % of control | [9] 102 % of control | [10] 96 % of control

CSc1nnc([N+](=O)[O-])s1
inactive: [14] 94 % of control | [15] 90 % of control

CC(=O)Nc1cc(-c2ccccc2)c(NC(C)=O)c(-c2ccccc2)c1
inactive: [8] 90 % of control | [9] 90 % of control | [10] 94 % of control

C=CCSc1nccc(=O)[nH]1
inactive: [16] 110 % of control | [17] 96 % of control

CCOC(=O)CCSC(C)(C)C(=O)OCC
inactive: [16] 97 % of control | [17] 101 % of control | dose: 400.0 mg/kg/injection, schedule: Q01DX009 (ip), vehicle: Klucel (hydroxypropylcellulose) (HPC) 100 % of control

CCOC(=O)CN1C(=O)C(Cl)=C(Cl)C1=O
inactive: dose: 3.12 mg/kg/injection, schedule: Q01DX009 (ip), vehicle: saline with Tween-80 98 % of control | dose: 6.25 mg/kg/injection, schedule: Q01DX009 (ip), vehicle: saline with Tween-80 98 % of control | [11] 96 % of control

O=C(O)C1CC=CCC1c1ccccc1 (stereo unspecified)
inactive: dose: 100.0 mg/kg/injection, schedule: Q04DX003 (ip), vehicle: other 96 % of control | dose: 200.0 mg/kg/injection, schedule: Q04DX003 (ip), vehicle: other 96 % of control | dose: 400.0 mg/kg/injection, schedule: Q04DX003 (ip), vehicle: other 101 % of control

CCCCCCCCCCNC(=O)C[n+]1cccc(C(=O)NC)c1
inactive: [12] 95 % of control | [13] 89 % of control

CN1CCCC1c1cccc([N+](=O)[O-])c1 (stereo unspecified)
inactive: dose: 100.0 mg/kg/injection, schedule: Q01DX001 (ip), vehicle: acetone 93 % of control

CCC(C)OC(=O)Nc1cccc(O)c1 (stereo unspecified)
inactive: [1] 91 % of control | [2] 89 % of control | [3] 90 % of control

Oc1ccc2ccccc2c1/C=C/c1ccncc1
inactive: [14] 96 % of control | [15] 97 % of control | dose: 25.0 mg/kg/injection, schedule: Q01DX001 (ip), vehicle: Klucel (hydroxypropylcellulose) (HPC) 98 % of control | dose: 25.0 mg/kg/injection, schedule: Q01DX009 (ip), vehicle: Klucel (hydroxypropylcellulose) (HPC) 100 % of control | dose: 50.0 mg/kg/injection, schedule: Q01DX001 (ip), vehicle: Klucel (hydroxypropylcellulose) (HPC) 102 % of control | dose: 50.0 mg/kg/injection, schedule: Q01DX009 (ip), vehicle: Klucel (hydroxypropylcellulose) (HPC) 89 % of control | [4] 105 % of control and 91 % of control

Nc1ncnc(N)c1NC(=O)c1ccc(CCc2ccccc2)c(Cl)c1
inactive: [4] 102 % of control | dose: 200.0 mg/kg/injection, schedule: Q01DX001 (ip), vehicle: Klucel (hydroxypropylcellulose) (HPC) 90 % of control | dose: 400.0 mg/kg/injection, schedule: Q01DX001 (ip), vehicle: Klucel (hydroxypropylcellulose) (HPC) 86 % of control

CCNS(=O)(=O)O
inactive: dose: 25.0 mg/kg/injection, schedule: Q01DX001 (ip), vehicle: saline 98 % of control | dose: 50.0 mg/kg/injection, schedule: Q01DX001 (ip), vehicle: saline 104 % of control | [8] 107 % of control and 120 % of control | [9] 102 % of control | [10] 105 % of control

Nc1nc(-c2ccc(Cl)cc2)c(N=Nc2ccc(Br)cc2)s1
inactive: dose: 100.0 mg/kg/injection, schedule: Q04DX003 (ip), vehicle: saline with Tween-80 104 % of control | dose: 200.0 mg/kg/injection, schedule: Q04DX003 (ip), vehicle: saline with Tween-80 97 % of control | dose: 400.0 mg/kg/injection, schedule: Q04DX003 (ip), vehicle: saline with Tween-80 101 % of control

CC1(C)CC(=O)C2=C(C1)Nc1ccccc1CC2c1c[nH]c2ccccc12 (stereo unspecified)
inactive: dose: 100.0 mg/kg/injection, schedule: Q01DX001 (ip), vehicle: other 94 % of control | dose: 200.0 mg/kg/injection, schedule: Q01DX001 (ip), vehicle: other 103 % of control | dose: 400.0 mg/kg/injection, schedule: Q01DX001 (ip), vehicle: other 103 % of control
